Literature values as cited in patent US11491229B2, “Medication system” (priority 2015, dated 2022).

Columns and labels:
[1] = tested on: nontumorigenic mammary cells
[2] = tested on: estrogen receptor-positive and estrogen receptor-negative breast cancer cell lines; details: inducing apoptosis in a concentration-dependent manner
breast tumors = details: mice models
[3] = not given; remark: listed apart in the source
[4] = biological target: T1, androgen receptor in the prostate gland (Homo sapiens, UniProt P10275)
T1 sequence (P10275 1-920): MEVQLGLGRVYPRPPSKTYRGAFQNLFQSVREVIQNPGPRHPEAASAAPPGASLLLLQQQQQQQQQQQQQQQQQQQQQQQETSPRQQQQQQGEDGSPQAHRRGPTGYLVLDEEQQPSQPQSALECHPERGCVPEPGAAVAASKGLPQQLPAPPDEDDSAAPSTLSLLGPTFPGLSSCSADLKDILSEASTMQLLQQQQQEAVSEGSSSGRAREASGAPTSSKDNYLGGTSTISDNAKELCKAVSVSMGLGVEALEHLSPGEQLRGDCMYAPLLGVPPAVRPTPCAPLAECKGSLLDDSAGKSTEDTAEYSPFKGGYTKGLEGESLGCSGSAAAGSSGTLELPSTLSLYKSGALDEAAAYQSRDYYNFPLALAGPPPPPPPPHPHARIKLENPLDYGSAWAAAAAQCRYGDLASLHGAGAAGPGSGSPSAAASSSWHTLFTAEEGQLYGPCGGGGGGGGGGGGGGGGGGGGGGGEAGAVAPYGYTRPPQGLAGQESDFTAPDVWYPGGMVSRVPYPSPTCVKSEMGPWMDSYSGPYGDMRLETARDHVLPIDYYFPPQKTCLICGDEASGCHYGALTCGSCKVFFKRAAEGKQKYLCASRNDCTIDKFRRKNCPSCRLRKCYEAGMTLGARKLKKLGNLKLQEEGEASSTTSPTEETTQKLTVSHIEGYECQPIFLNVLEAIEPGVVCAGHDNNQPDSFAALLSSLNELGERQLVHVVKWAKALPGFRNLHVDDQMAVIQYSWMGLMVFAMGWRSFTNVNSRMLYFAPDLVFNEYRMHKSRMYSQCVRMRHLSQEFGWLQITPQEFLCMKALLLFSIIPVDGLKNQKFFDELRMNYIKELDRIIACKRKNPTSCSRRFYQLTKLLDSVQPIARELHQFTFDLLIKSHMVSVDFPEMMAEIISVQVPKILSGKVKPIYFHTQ

prostate cell line, PC-3 = details: Ruiz et al. 1999
CB1 receptor = CB1 receptor (Homo sapiens, UniProt P21554)
Chain of CB1 receptor (P21554 whole entry): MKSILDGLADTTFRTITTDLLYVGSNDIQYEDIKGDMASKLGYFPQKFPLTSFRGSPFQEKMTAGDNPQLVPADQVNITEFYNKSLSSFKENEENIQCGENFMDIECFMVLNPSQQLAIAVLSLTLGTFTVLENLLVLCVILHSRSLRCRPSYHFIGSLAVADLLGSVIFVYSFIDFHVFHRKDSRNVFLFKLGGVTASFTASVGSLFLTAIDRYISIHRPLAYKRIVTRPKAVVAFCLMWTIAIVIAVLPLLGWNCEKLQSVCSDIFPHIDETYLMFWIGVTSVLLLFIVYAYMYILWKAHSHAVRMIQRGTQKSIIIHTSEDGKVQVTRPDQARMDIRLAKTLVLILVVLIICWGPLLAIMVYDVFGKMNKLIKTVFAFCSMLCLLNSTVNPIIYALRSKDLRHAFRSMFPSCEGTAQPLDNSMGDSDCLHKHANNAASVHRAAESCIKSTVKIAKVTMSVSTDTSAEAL

C=C(C)[C@@H]1CCC(C)=C[C@H]1c1c(O)cc(CCCCC)cc1O [CBD, Cannabidiol]
affinity to cannabinoid receptors (cannabinoid receptors): low affinity | effect on nontumorigenic mammary cells [1]: little effect | survival of breast cancer cell lines [2]: inhibited the survival | effect on breast tumors (breast tumors): shrink breast tumors, and obstruct growth and metastasis

vitamin E
reduction in breast cancer incidence (pre-menopausal women with a family history of breast cancer, highest quantity of vitamin E consumed): 43% | risk reduction of breast cancer (women without a family history of breast cancer): 16%

CCCCCc1cc(O)c2c(c1)OC(C)(C)[C@@H]1CCC(C)=C[C@@H]21 [THC, Tetrahydrocannabinol]
time after administration at which pain reduction effects were felt (average) ([3]; cold-pressor test): 180 min | pain sensitivity ([3]; cold-pressor test after administration, smoked marijuana or oral dronabinol capsules 10 mg or 20 mg): decreased pain sensitivity | duration of effects ([3]; dronabinol compared with smoked marijuana): lasted longer than smoked marijuana | specific binding of dihydroxytestosterone to the androgen receptor [4]: inhibits specific binding | apoptosis (prostate cell line, PC-3): causes apoptosis

CCCc1cc(O)c2c(c1)OC(C)(C)[C@@H]1CCC(C)=C[C@@H]21 [THCV, Tetrahydrocannabivarin]
CB1 receptor mode of action (CB1 receptor): antagonist
